In the NIST ThermoML archive (doi:10.1021/je100556t):
Numbers after ± are expanded uncertainties.

Details: 298.15 K; 101.33 kPa; Liquid

molar volume [m3/mol]	SMILES
9.742e-05 ± 4e-08	CCOCCO [2-ethoxyethan-1-ol]
7.926e-05 ± 3e-08	COCCO [2-methoxyethan-1-ol]
8.174e-05 ± 4e-08	C1CCOC1 [tetrahydrofuran]
5.866e-05 ± 5e-08	CCO [ethanol]
0.0001088 ± 9e-08	C1CCCCC1 [cyclohexane]
